Assay results taken from PubChem BioAssay (NCI).
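Test compounds were applied to cells in 96-well plates for 48 hours at 5 doses. Abbreviation: GI50, concentration required for 50% inhibition of growth. The concentration for full growth arrest is given as TGI.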

Experiments:
Test in all cases: growth of human tumour cells (NCI), 48 h
[1] = system: ACHN renal
[2] = system: HS 578T breast
[3] = system: DU-145 prostate
[4] = system: MDA-MB-435
[5] = system: OVCAR-4 ovarian
[6] = system: OVCAR-5 ovarian
[7] = system: SF-268 CNS
[8] = system: UACC-257 melanoma
[9] = system: HOP-92 NSCLC
[10] = system: SN12C renal
[11] = system: IGROV1 ovarian
[12] = system: CAKI-1 renal
[13] = system: MOLT-4 leukemia
[14] = system: BT-549 breast
[15] = system: U251 CNS
[16] = system: SK-OV-3 ovarian
[17] = system: A498 renal
[18] = system: TK-10 renal
[19] = system: UACC-62 melanoma
[20] = system: NCI-H460 lung
[21] = system: SNB-75 CNS
[22] = system: A549 NSCLC
[23] = system: HCC-2998 colon
[24] = system: KM12 colon
[25] = system: NCI/ADR-RES ovarian
[26] = system: SW-620 colon
[27] = system: OVCAR-8 ovarian
[28] = system: MDA-MB-231 breast
[29] = system: SF-295 CNS
[30] = system: NCI-H226 lung
[31] = system: SK-MEL-2 melanoma
[32] = system: MCF7 breast
[33] = system: SF-539 CNS
[34] = system: HCT-15 colon
[35] = system: RPMI-8226 leukemia
[36] = system: EKVX NSCLC
[37] = system: HCT-116 colon
[38] = system: MALME-3M melanoma
[39] = system: NCI-H522 lung
[40] = system: HL-60(TB) leukemia
[41] = system: K-562 leukemia
[42] = system: HT29 colon
[43] = system: OVCAR-3 ovarian
[44] = system: PC-3 prostate
[45] = system: M14 melanoma
[46] = system: T-47D breast
[47] = system: NCI-H23 lung
[48] = system: UO-31 renal
[49] = system: COLO 205 colon
[50] = system: RXF 393 renal
[51] = system: SK-MEL-5 melanoma
[52] = system: SK-MEL-28 melanoma
[53] = system: SNB-19 CNS
[54] = system: LOX IMVI melanoma
[55] = system: 786-0 renal
[56] = system: HOP-62 NSCLC

CC1=C[C@@H]2c3c(c(O)c(O)c4oc5cc(O)cc(O)c5c(=O)c34)[C@@H](c3cc(O)c(O)c4oc5cc(O)cc(O)c5c(=O)c34)[C@@H]2C(C)(C)C1
GI50 [1]: 4.25 µM | TGI [1]: 15.7 µM | GI50 [2]: 3.42 µM | TGI [2]: 21 µM | GI50 [3]: 5.53 µM | TGI [3]: 16.6 µM | GI50 [4]: 3.49 µM | TGI [4]: 13.7 µM | GI50 [5]: 3.26 µM | TGI [5]: 14.7 µM | GI50 [6]: 7.83 µM | TGI [6]: 18.2 µM | GI50 [7]: 3.25 µM | TGI [7]: 16.1 µM | GI50 [8]: 9.65 µM | TGI [8]: 24.5 µM | GI50 [9]: 1.85 µM | TGI [9]: 6.6 µM | GI50 [10]: 3.91 µM | TGI [10]: 23 µM | GI50 [11]: 4.01 µM | TGI [11]: 22.2 µM | GI50 [12]: 3.93 µM | TGI [12]: 14 µM | GI50 [13]: 3.38 µM | TGI [13]: 19.5 µM | GI50 [14]: 3.68 µM | TGI [14]: 19.8 µM | GI50 [15]: 2.34 µM | TGI [15]: 13.9 µM | GI50 [16]: 3.77 µM | TGI [16]: 14.6 µM | GI50 [17]: 9.07 µM | TGI [17]: 21 µM | GI50 [18]: 5.85 µM | TGI [18]: 19.2 µM | GI50 [19]: 1.88 µM | TGI [19]: 5.72 µM | GI50 [20]: 1.1 µM | TGI [20]: 8.31 µM | GI50 [21]: 6.34 µM | TGI [21]: 20.5 µM | GI50 [22]: 4.12 µM | TGI [22]: 17.6 µM | GI50 [23]: 3.87 µM | TGI [23]: 15.2 µM | GI50 [24]: 3.1 µM | TGI [24]: 12.2 µM | GI50 [25]: 10.2 µM | TGI [25]: 27.1 µM | GI50 [26]: 3.48 µM | TGI [26]: 14.2 µM | GI50 [27]: 4.31 µM | TGI [27]: 18.8 µM | GI50 [28]: 4.19 µM | TGI [28]: 20.5 µM | GI50 [29]: 2.87 µM | TGI [29]: 11.3 µM | GI50 [30]: 3.82 µM | TGI [30]: 28.4 µM | GI50 [31]: 5.99 µM | TGI [31]: 21 µM | GI50 [32]: 1.89 µM | TGI [32]: 11 µM | GI50 [33]: 4.7 µM | TGI [33]: 17.2 µM | GI50 [34]: 3.16 µM | TGI [34]: 12.8 µM | GI50 [35]: 1.96 µM | TGI [35]: 10.3 µM | GI50 [36]: 5 µM | TGI [36]: 15.6 µM | GI50 [37]: 2.7 µM | TGI [37]: 9.85 µM | GI50 [38]: 8.53 µM | TGI [38]: 25.2 µM | GI50 [39]: 2.9 µM | TGI [39]: 12.1 µM | GI50 [40]: 4.87 µM | TGI [40]: 27.4 µM | GI50 [41]: 2.34 µM | TGI [41]: 80 µM | GI50 [42]: 3.86 µM | TGI [42]: 14.8 µM | GI50 [43]: 3.33 µM | TGI [43]: 13.4 µM | GI50 [44]: 3.33 µM | TGI [44]: 14 µM | GI50 [45]: 2.37 µM | TGI [45]: 12.8 µM | GI50 [46]: 4.6 µM | TGI [46]: 19.2 µM | GI50 [47]: 3.33 µM | TGI [47]: 14.5 µM | GI50 [48]: 3.83 µM | TGI [48]: 16.3 µM | GI50 [49]: 2.86 µM | TGI [49]: 11.2 µM | GI50 [50]: 5.69 µM | TGI [50]: 17.3 µM | GI50 [51]: 2.56 µM | TGI [51]: 10.5 µM | GI50 [52]: 5.64 µM | TGI [52]: 18.7 µM | GI50 [53]: 2.76 µM | TGI [53]: 13 µM | GI50 [54]: 1.53 µM | TGI [54]: 4.26 µM | GI50 [55]: 2.69 µM | TGI [55]: 11.5 µM | GI50 [56]: 3 µM | TGI [56]: 14.5 µM
